How the values were obtained:
PLK1-SD40 = assay: Immunoblot, endogenous SD40-tagged PLK1 in HEK293T cells; format: cell-based, human; conditions: 2 hours of treatment
Excerpt: Next, we evaluated the installation of SD40 at endogenous genomic target genes in mammalian cells using twin prime editing (twin PE) ([54], [75]). We optimized prime editing parameters, including spacer position and prime editor construct ([30]), to insert SD40 at the C-terminus of PLK1 with 26% editing efficiency and 8.8% indel byproducts in HEK293T cells (Fig. 3E, fig. S13), enabling rapid isolation of a homozygous PLK1-SD40 cell line. PLK1 is an essential cell-state regulator ([76]), and complete knockdown for 24 hours is cytotoxic. […] We also used twin prime editing to install SD40 at the N-terminus of BRD4 yielding 7.7% knock-in of SD40 in K562 cells (Fig. 3E, S13) with 4.3% indel byproducts. […] For comparison, we also attempted scarless insertion of SD40 and FKBP12^F36V from the dTag system (324 base pairs) ([17]) at the N-terminus of BRD4 using Cas9 nuclease-directed HDR using two different sgRNAs and a double-strand donor DNA template. […]
HEK293T or K562 cells were plated at a density of 1.6 x 10^5 cells/well in a 24-well plate coated with poly-D-lysine (Corning) in 1 mL media (DMEM + 10% FBS for HEK293T cells and RPMI + 10% FBS for K562 cells). […] Protein concentration in clarified lysates was quantified using Pierce BCA Protein Assay Kit (Thermo Scientific) according to the manufacturer’s protocol. […]

DDB1•CRBN = target: T1, DDB1•CRBN (Homo sapiens, UniProt Q96SW2); assay: Competitive fluorescence anisotropy (polarization) vs thalidomide-Cy5; format: binding; conditions: competition with thalidomide–Cy5; KD estimated from Ki
T1 construct: made in house
Description: Competitive fluorescence polarization experiments were performed according to previously reported methods ([65]). All experiments were performed in 25 mM HEPES, […], 1 mM TCEP, pH 7.4. A pre-complexed sample was prepared by incubating DDB1-CRBN (400 nM) with thalidomide–Cy5 conjugate (fig. S2A) (80 nM) at RT for 30 minutes with gentle shaking (220 rpm). […] Polarization values were measured on an Infinite M1000 Pro microplate reader (Tecan) following 1 hour of incubation at RT with gentle shaking. A total of three independent measurements were acquired and averaged per biological sample to generate the values shown in figure S2C. All mP values were normalized between 0 and 100 using the formula NormalizedmP=[(x−minimum)/[…]]∗100 , where ‘‘x’’ is the mP value of the sample and ‘‘minimum’’ and ‘‘maximum’’ are the minimum and maximum mP values, respectively, across all samples. KD values were estimated from computed Ki-values as previously described ([65]).

O=C1CCC(N2C(=O)c3ccc(N4CCOCC4)cc3C2=O)C(=O)N1 (centres unmarked) [PT-179] was tested, and the “PLK1 knockdown (in words)” value (PLK1-SD40) was “robust PLK1 knockdown” and the Kd (DDB1•CRBN) was 0.587 µM.

— paper PMC11203266, “Continuous evolution of compact protein degradation tags regulated by selective molecular glues” (Science (New York, N.Y.), 2024)
